Active and inactive are the calls of the source. The rule behind the calls is not given here.
Test system: CCRIS mutagenicity, Ames/micronucleus/aberration tests
Assay: CCRIS mutagenicity studies
[1] = Test System: AMES SALMONELLA TYPHIMURIUM, Strain/Indicator: TA98, Metabolic Activation: NONE, Method: STANDARD PLATE
[2] = Test System: AMES SALMONELLA TYPHIMURIUM, Strain/Indicator: TA100, Metabolic Activation: NONE, Method: STANDARD PLATE
[3] = Test System: AMES SALMONELLA TYPHIMURIUM, Strain/Indicator: TA98(1,8-DNP6), Metabolic Activation: NONE, Method: STANDARD PLATE
[4] = Test System: AMES SALMONELLA TYPHIMURIUM, Strain/Indicator: TA98, Metabolic Activation: RAT, LIVER, S-9, AROCLOR 1254, Method: STANDARD PLATE

For `CCC1CCC(CCC(=O)[O-])C1.CCC1CCC(CCC(=O)[O-])CC1.[Cu+2]` (stereo unspecified), the mutagenic call (End Point: In vitro chromosomal aberrations, Test System: Chinese hamster ovary (CHO) cells, Metabolic Activation: None) was “inactive; negative”, the mutagenic call (End Point: In vitro chromosomal aberrations, Test System: Chinese hamster ovary (CHO) cells, Metabolic Activation: Rat, Liver, S-9, Aroclor) was “inactive; negative” and the mutagenic call (Test System: AMES SALMONELLA TYPHIMURIUM, Strain/Indicator: TA98, Metabolic Activation: HAMSTER, LIVER, S-9, AROCLOR 1254 (10%), Method: STANDARD PLATE) was “inactive; negative”. The mutagenic call [1] was “inactive; negative”, the mutagenic call (Test System: AMES SALMONELLA TYPHIMURIUM, Strain/Indicator: TA98, Metabolic Activation: RAT, LIVER, S-9, AROCLOR 1254 (10%), Method: STANDARD PLATE) was “inactive; negative” and the mutagenic call (Test System: AMES SALMONELLA TYPHIMURIUM, Strain/Indicator: TA100, Metabolic Activation: HAMSTER, LIVER, S-9, AROCLOR 1254 (10%), Method: STANDARD PLATE) was “inactive; negative”. For the same molecule, the mutagenic call [2] was “inactive; negative”, the mutagenic call (Test System: AMES SALMONELLA TYPHIMURIUM, Strain/Indicator: TA100, Metabolic Activation: RAT, LIVER, S-9, AROCLOR 1254 (10%), Method: STANDARD PLATE) was “inactive; negative” and the mutagenic call (Test System: AMES SALMONELLA TYPHIMURIUM, Strain/Indicator: TA1535, Metabolic Activation: HAMSTER, LIVER, S-9, AROCLOR 1254 (10%), Method: STANDARD PLATE) was “inactive; negative”. For the same molecule, the mutagenic call (Test System: AMES SALMONELLA TYPHIMURIUM, Strain/Indicator: TA1535, Metabolic Activation: NONE, Method: STANDARD PLATE) was “inactive; negative”, the mutagenic call (Test System: AMES SALMONELLA TYPHIMURIUM, Strain/Indicator: TA1535, Metabolic Activation: RAT, LIVER, S-9, AROCLOR 1254 (10%), Method: STANDARD PLATE) was “inactive; negative” and the mutagenic call (Test System: AMES SALMONELLA TYPHIMURIUM, Strain/Indicator: TA1537, Metabolic Activation: HAMSTER, LIVER, S-9, AROCLOR 1254 (10%), Method: STANDARD PLATE) was “inactive; negative”. The mutagenic call (Test System: AMES SALMONELLA TYPHIMURIUM, Strain/Indicator: TA1537, Metabolic Activation: NONE, Method: STANDARD PLATE) was “inactive; negative”, the mutagenic call (Test System: AMES SALMONELLA TYPHIMURIUM, Strain/Indicator: TA1537, Metabolic Activation: RAT, LIVER, S-9, AROCLOR 1254 (10%), Method: STANDARD PLATE) was “inactive; negative” and the mutagenic call (Test System: AMES SALMONELLA TYPHIMURIUM, Strain/Indicator: TA1538, Metabolic Activation: HAMSTER, LIVER, S-9, AROCLOR 1254 (10%), Method: STANDARD PLATE) was “inactive; negative”. For the same molecule, the mutagenic call (Test System: AMES SALMONELLA TYPHIMURIUM, Strain/Indicator: TA1538, Metabolic Activation: NONE, Method: STANDARD PLATE) was “inactive; negative”, the mutagenic call (Test System: AMES SALMONELLA TYPHIMURIUM, Strain/Indicator: TA1538, Metabolic Activation: RAT, LIVER, S-9, AROCLOR 1254 (10%), Method: STANDARD PLATE) was “inactive; negative” and the mutagenic call (Test System: MOUSE LYMPHOMA, Strain/Indicator: L5178Y (TK+/TK-), Metabolic Activation: RAT, LIVER, S-9, AROCLOR 1254, Method: SUSPENSION/PLATE) was “active; positive. reevaluation of results: positive”. For the same molecule, the mutagenic call (Test System: Mouse lymphoma, Strain/Indicator: L5178Y TK+/-, Metabolic Activation: Mammalian, liver, S-9) was “active; positive” and the mutagenic call (Test System: Mouse lymphoma, Strain/Indicator: L5178Y TK+/-, Metabolic Activation: None) was “inactive; negative”.

For `CC(C)(Br)C(Br)CCl` (stereo unspecified), the mutagenic call (Test System: AMES SALMONELLA TYPHIMURIUM, Strain/Indicator: TA100, Metabolic Activation: RAT, LIVER, MICROSOMES, PHENOBARBITAL, Method: PREINCUBATION) was “inactive; negative” and the mutagenic call (Test System: AMES SALMONELLA TYPHIMURIUM, Strain/Indicator: TA100, Metabolic Activation: RAT, LIVER, MICROSOMES, Method: PREINCUBATION) was “inactive; negative”.

`CC(=O)Nc1ccc2ccc3cccc4ccc1c2c34` was tested, and the mutagenic call [3] was “inactive; negative”, the mutagenic call (Test System: AMES SALMONELLA TYPHIMURIUM, Strain/Indicator: TA98(1,8-DNP6), Metabolic Activation: RAT, LIVER, S-9, AROCLOR 1254, Method: STANDARD PLATE) was “inactive; negative” and the mutagenic call (Test System: AMES SALMONELLA TYPHIMURIUM, Strain/Indicator: TA98(NR), Metabolic Activation: NONE, Method: STANDARD PLATE) was “inactive; negative”. The mutagenic call (Test System: AMES SALMONELLA TYPHIMURIUM, Strain/Indicator: TA98(NR), Metabolic Activation: RAT, LIVER, S-9, AROCLOR 1254, Method: STANDARD PLATE) was “active; positive”, the mutagenic call [1] was “inactive; negative” and the mutagenic call [4] was “active; positive”.

With `Cn1c(N=[N+]=[N-])nc2ccc3ncccc3c21` the mutagenic call [3] was “active; positive” and the mutagenic call [1] was “active; positive”.

With `Cc1c(/C=N/OCc2ccccc2)c2cc([N+](=O)[O-])ccc2n1Cc1cccc([N+](=O)[O-])c1` the mutagenic call [1] was “active; positive”, the mutagenic call (Test System: AMES SALMONELLA TYPHIMURIUM, Strain/Indicator: TA98, Metabolic Activation: RAT, LIVER, S-9, PHENOBARBITAL AND BETA-NAPHTHOFLAVONE, Method: STANDARD PLATE) was “active; positive” and the mutagenic call [2] was “inactive; negative”. The mutagenic call (Test System: AMES SALMONELLA TYPHIMURIUM, Strain/Indicator: TA100, Metabolic Activation: RAT, LIVER, S-9, PHENOBARBITAL AND BETA-NAPHTHOFLAVONE, Method: STANDARD PLATE) was “inactive; negative”.

In the case of `O=C1CCC(=O)N1c1ccc(Cl)cc1`, the mutagenic call [1] was “inactive; negative”, the mutagenic call [4] was “inactive; negative” and the mutagenic call [2] was “inactive; negative”. The mutagenic call (Test System: AMES SALMONELLA TYPHIMURIUM, Strain/Indicator: TA100, Metabolic Activation: RAT, LIVER, S-9, AROCLOR 1254, Method: STANDARD PLATE) was “inactive; negative”.

`COc1ccc(/C=N/n2nnc3c([nH]c4ccccc43)c2=O)cc1` was tested, and the mutagenic call (Test System: AMES SALMONELLA TYPHIMURIUM, Strain/Indicator: TA97, Metabolic Activation: NONE, Method: PREINCUBATION) was “active; positive”, the mutagenic call (Test System: AMES SALMONELLA TYPHIMURIUM, Strain/Indicator: TA97, Metabolic Activation: RAT, LIVER, S-9, AROCLOR 1254 (10%), Method: PREINCUBATION) was “active; positive” and the mutagenic call (Test System: AMES SALMONELLA TYPHIMURIUM, Strain/Indicator: TA98, Metabolic Activation: NONE, Method: PREINCUBATION) was “active; positive”. For the same molecule, the mutagenic call (Test System: AMES SALMONELLA TYPHIMURIUM, Strain/Indicator: TA98, Metabolic Activation: RAT, LIVER, S-9, AROCLOR 1254 (10%), Method: PREINCUBATION) was “active; positive”, the mutagenic call (Test System: AMES SALMONELLA TYPHIMURIUM, Strain/Indicator: TA100, Metabolic Activation: NONE, Method: PREINCUBATION) was “active; positive” and the mutagenic call (Test System: AMES SALMONELLA TYPHIMURIUM, Strain/Indicator: TA100, Metabolic Activation: RAT, LIVER, S-9, AROCLOR 1254 (10%), Method: PREINCUBATION) was “active; positive”. The mutagenic call (Test System: AMES SALMONELLA TYPHIMURIUM, Strain/Indicator: TA102, Metabolic Activation: NONE, Method: PREINCUBATION) was “inactive; negative” and the mutagenic call (Test System: AMES SALMONELLA TYPHIMURIUM, Strain/Indicator: TA102, Metabolic Activation: RAT, LIVER, S-9, AROCLOR 1254 (10%), Method: PREINCUBATION) was “inactive; negative”.

— PubChem BioAssay AID1259407 (Chemical Carcinogenesis Research Information System (CCRIS), 2018)
